In brackets after ≈: the same amount, converted by molar mass. Activity calls are given as the source filed them. No cut-off for these calls is given here.
Experiments:
[1] = test system: SH-SY5Y; assay: Cytotoxicity against human SH-SY5Y cells at 25 uM incubated for 72 hrs by CCK8 assay; format: toxicity, cell-based
[2] = test system: SH-SY5Y; assay: Neuroprotective activity against glutamate induced human SH-SY5Y cells at 10 uM preincubated for 30 mins followed by glutamate addition and measured after 24 hrs by LDH based assay; format: functional; conditions: time 24.5 hrs
[3] = test system: SH-SY5Y; assay: Neuroprotective activity against glutamate induced human SH-SY5Y cells at 1 uM preincubated for 30 mins followed by glutamate addition and measured after 24 hrs by LDH based assay; format: functional; conditions: time 24.5 hrs
[4] = test system: SH-SY5Y; assay: Neuroprotective activity against glutamate induced human SH-SY5Y cells at 0.1 uM preincubated for 30 mins followed by glutamate addition and measured after 24 hrs by LDH based assay; format: functional; conditions: time 24.5 hrs
[5] = test system: Rattus norvegicus; assay: Neuroprotective activity against MCAO-reperfusion induced Sprague-Dawley rat assessed as reduction in infarct volume at 6 mg/kg, ip by TTC staining based analysis (reference value: 40.02 +/- 2.61 %); format: functional; design: scale not given: the % may be the effect or the level left
[6] = Half life in Sprague-Dawley rat at 10 mg/kg, po measured upto 24 hrs by LC-MS/MS analysis; format: ADME, organism-based; conditions: in vivo
[7] = Tmax in Sprague-Dawley rat at 10 mg/kg, po measured upto 24 hrs by LC-MS/MS analysis; format: ADME, organism-based; conditions: in vivo
[8] = Cmax in Sprague-Dawley rat at 10 mg/kg, po measured upto 24 hrs by LC-MS/MS analysis; format: ADME, organism-based; conditions: in vivo
[9] = AUC(0 to t) in Sprague-Dawley rat at 10 mg/kg, po measured upto 24 hrs by LC-MS/MS analysis; format: ADME, organism-based; conditions: in vivo
[10] = AUC(0 to infinity) in Sprague-Dawley rat at 10 mg/kg, po measured upto 24 hrs by LC-MS/MS analysis; format: ADME, organism-based; conditions: in vivo
[11] = Mean residence time in Sprague-Dawley rat at 10 mg/kg, po measured upto 24 hrs by LC-MS/MS analysis; format: ADME, organism-based; conditions: in vivo
[12] = Oral bioavailability in Sprague-Dawley rat at 10 mg/kg measured upto 24 hrs by LC-MS/MS analysis; format: ADME, organism-based; conditions: in vivo
[13] = test system: Neuron; assay: Neuroprotective activity against glutamate-induced excitotoxicity in rat primary neurons at 0.1 uM; format: functional, cell-based
[14] = test system: Neuron; assay: Inhibition of PSD95 to nNOS protein-protein interaction in glutamate induced rat neurons at 2 to 20 uM by co-immunoprecipitation method; format: cell-based; conditions: dose 2-20 µM
[15] = Drug concentration in Sprague-Dawley rat brain at 10 mg/kg, iv after 0.5 hrs by LC-MS/MS analysis; format: ADME, organism-based; conditions: read-out: Ct
[16] = Solubility of the compound at pH 7.4; format: physicochemical; conditions: buffer
[17] = Drug concentration in Sprague-Dawley rat plasma at 10 mg/kg, iv after 0.5 hrs by LC-MS/MS analysis; format: ADME, organism-based
[18] = Ratio of drug concentration in Sprague-Dawley rat brain to plasma at 10 mg/kg, iv measured after 0.25 hrs by LC-MS/MS analysis; format: ADME, organism-based
[19] = Drug concentration in Sprague-Dawley rat plasma at 10 mg/kg, iv after 0.25 hrs by LC-MS/MS analysis; format: ADME, organism-based
[20] = Drug concentration in Sprague-Dawley rat brain at 10 mg/kg, iv after 0.25 hrs by LC-MS/MS analysis; format: ADME, organism-based; conditions: read-out: Ct
[21] = Ratio of drug concentration in Sprague-Dawley rat brain to plasma at 10 mg/kg, iv measured after 0.5 hrs by LC-MS/MS analysis; format: ADME, organism-based
[22] = Drug concentration in Sprague-Dawley rat plasma at 10 mg/kg, iv after 1 hr by LC-MS/MS analysis; format: ADME, organism-based
[23] = Drug concentration in Sprague-Dawley rat brain at 10 mg/kg, iv after 1 hr by LC-MS/MS analysis; format: ADME, organism-based; conditions: read-out: Ct
[24] = Ratio of drug concentration in Sprague-Dawley rat brain to plasma at 10 mg/kg, iv measured after 1 hr by LC-MS/MS analysis; format: ADME, organism-based
[25] = test system: Rattus norvegicus; assay: Neuroprotective activity against MCAO-reperfusion induced Sprague-Dawley rat assessed as reduction in infarct volume at 10 mg/kg, ip by TTC staining based analysis (reference value: 40.02 +/- 2.61 %); format: functional; design: scale not given: the % may be the effect or the level left
[26] = test system: Rattus norvegicus; assay: Neuroprotective activity against MCAO-reperfusion induced Sprague-Dawley rat assessed as reduction in neurological deficit score at 10 mg/kg, ip by TTC staining based analysis (reference value: 2.93 +/- 0.12); format: functional
[27] = Half life in Sprague-Dawley rat at 2 mg/kg, iv measured upto 24 hrs by LC-MS/MS analysis; format: ADME, organism-based; conditions: in vivo
[28] = Cmax in Sprague-Dawley rat at 2 mg/kg, iv measured upto 24 hrs by LC-MS/MS analysis; format: ADME, organism-based; conditions: in vivo
[29] = AUC(0 to t) in Sprague-Dawley rat at 2 mg/kg, iv measured upto 24 hrs by LC-MS/MS analysis; format: ADME, organism-based; conditions: in vivo
[30] = AUC(0 to infinity) in Sprague-Dawley rat at 2 mg/kg, iv measured upto 24 hrs by LC-MS/MS analysis; format: ADME, organism-based; conditions: in vivo
[31] = Apparent volume of distribution in Sprague-Dawley rat at 2 mg/kg, iv measured upto 24 hrs by LC-MS/MS analysis; format: ADME, organism-based; conditions: in vivo, read-out: Vz
[32] = Apparent clearance in Sprague-Dawley rat at 2 mg/kg, iv measured upto 24 hrs by LC-MS/MS analysis; format: ADME, organism-based; conditions: in vivo, read-out: CL(app)
[33] = Mean residence time in Sprague-Dawley rat at 2 mg/kg, iv measured upto 24 hrs by LC-MS/MS analysis; format: ADME, organism-based; conditions: in vivo
[34] = test system: Cortical neurone; assay: Neuroprotective activity against glutamate induced Sprague-Dawley rat primary cortical neuron at 0.1 to 10 uM preincubated for 30 mins followed by glutamate/glycine addition for 30 mins and measured after 24 hrs by LDH based assay; format: functional, cell-based; conditions: dose 0.1-10 µM, time 25.0 hrs
[35] = Half life in Sprague-Dawley rat at 5 mg/kg, iv measured upto 24 hrs by LC-MS/MS analysis; format: ADME, organism-based; conditions: in vivo
[36] = Cmax in Sprague-Dawley rat at 5 mg/kg, iv measured upto 24 hrs by LC-MS/MS analysis; format: ADME, organism-based; conditions: in vivo
[37] = AUC(0 to t) in Sprague-Dawley rat at 5 mg/kg, iv measured upto 24 hrs by LC-MS/MS analysis; format: ADME, organism-based; conditions: in vivo
[38] = AUC(0 to infinity) in Sprague-Dawley rat at 5 mg/kg, iv measured upto 24 hrs by LC-MS/MS analysis; format: ADME, organism-based; conditions: in vivo
[39] = Apparent volume of distribution in Sprague-Dawley rat at 5 mg/kg, iv measured upto 24 hrs by LC-MS/MS analysis; format: ADME, organism-based; conditions: in vivo, read-out: Vz
[40] = Mean residence time in Sprague-Dawley rat at 5 mg/kg, iv measured upto 24 hrs by LC-MS/MS analysis; format: ADME, organism-based; conditions: in vivo

Nc1ccccc1NC(=O)c1ccc(COc2c(N)cc(Cl)cc2Cl)cc1
Activity [1]: 0.24% | Activity [2]: 63.3% | Activity [3]: 41.87% | Activity [4]: 14.78%

Nc1cc(Cl)cc(Cl)c1OCc1ccc(C(=O)N[C@H]2CCCC[C@@H]2N)cc1
Activity [1]: 2.42% | Activity [2]: 65.52% | Activity [3]: 39.66% | Activity [4]: 10.1%

Nc1cc(Cl)cc(Cl)c1OCc1ccc(C(=O)NCCS)cc1
Activity [1]: 5.23% | Activity [2]: 61.07% | Activity [3]: 35.12% | Activity [4]: 9.67%

CC1=NN(c2ccccc2)C(=O)C1 [EDARAVONE]
Activity [5]: 27.06%

Nc1cc(Cl)cc(Cl)c1OCc1ccc(C(=O)N[C@@H]2CCCC[C@H]2N)cc1
Activity [1]: 2.51% | Activity [2]: 63.06% | Activity [3]: 41.87% | Activity [4]: 12.32%

Nc1cc(Cl)cc(Cl)c1OCc1ccc(C(=O)NCC(=O)O)cc1
Activity [1]: 5.67% | Activity [2]: 66.01% | Activity [3]: 47.04% | Activity [4]: 18.96%

NCC(=O)Nc1cc(Cl)cc(Cl)c1OCc1ccc(C(=O)Nc2ccccc2N)cc1
half-life [6]: 4.26 h | Tmax [7]: 0.83 h | Cmax [8]: 233 ng/mL | AUC(0-t) at 24 h [9]: 1240 ng·h/mL | AUC(0-inf) ([10]; Sprague-Dawley): 1260 ng·h/mL | MRT [11]: 3.26 h | bioavailability ([12]; Sprague-Dawley): 19.6% | Activity [13]: Active | inhibition [14]: Active | concentration at 0.5 h [15]: 7.64 ng/g | solubility [16]: 23 µg/mL (≈ 50.1 µM) | concentration at 0.5 h [17]: 935 ng/mL | Kp at 0.25 h [18]: 0.0056 | concentration at 0.25 h [19]: 1890 ng/mL | concentration at 0.25 h [20]: 10.6 ng/g | Kp at 0.5 h [21]: 0.0082 | concentration at 1 h [22]: 329 ng/mL | concentration at 1 h [23]: 10 ng/g | Kp at 1 h [24]: 0.0305 | Activity [25]: 28.31% | Activity [26]: 2.27 | half-life [27]: 4.08 h | Cmax [28]: 2510 ng/mL | AUC(0-t) at 24 h [29]: 1270 ng·h/mL | AUC(0-inf) [30]: 1280 ng·h/mL | Vd [31]: 8.81 L/kg | clearance [32]: 26.4 mL/min/kg | MRT [33]: 1.46 h

COCCNC(=O)c1ccc(COc2c(N)cc(Cl)cc2Cl)cc1
Activity [1]: 1.33% | Activity [2]: 65.14% | Activity [3]: 40.46% | Activity [4]: 11.71%

CS(=O)(=O)Nc1ccc(COc2c(N)cc(Cl)cc2Cl)cc1
Activity [1]: 3.57% | Activity [2]: 69.19% | Activity [3]: 45.26% | Activity [4]: 15.4%

NNC(=O)c1ccc(COc2c(N)cc(Cl)cc2Cl)cc1
Activity [1]: 0.59% | Activity [2]: 22.56% | Activity [3]: 6.15% | Activity [4]: 5.89%

CN(C)CCNC(=O)c1ccc(COc2c(N)cc(Cl)cc2Cl)cc1
Activity [1]: 1.52% | Activity [2]: 32.3% | Activity [3]: 15.63% | Activity [4]: 2.56%

Nc1cc(Cl)cc(Cl)c1OCc1ccc(NS(=O)(=O)c2ccccc2)cc1
Activity [1]: 1.96% | Activity [2]: 64.69% | Activity [3]: 38.63% | Activity [4]: 15.64%

Nc1cc(Cl)cc(Cl)c1OCc1ccc(S(N)(=O)=O)cc1
Activity [1]: 6.21% | Activity [2]: 33.84% | Activity [3]: 15.52% | Activity [4]: <0%

Nc1cc(Cl)cc(Cl)c1OCc1ccc(C(=O)NCCO)cc1
Activity [1]: 1.21% | Activity [2]: 41.58% | Activity [3]: 26.31% | Activity [4]: 4%

Nc1cc(Cl)cc(Cl)c1OCc1ccc(NS(=O)(=O)C(F)(F)F)cc1
Activity [1]: 2.21% | Activity [2]: 60.31% | Activity [3]: 36.13% | Activity [4]: 10.69%

NCCNC(=O)c1ccc(COc2c(N)cc(Cl)cc2Cl)cc1
Activity [1]: < 0% | Activity [2]: 67.8% | Activity [3]: 41.14% | Activity [4]: 12.87%

CN(CCN)C(=O)c1ccc(COc2c(N)cc(Cl)cc2Cl)cc1
Activity [1]: 2.21% | Activity [2]: 44.82% | Activity [3]: 32.51% | Activity [4]: 11.33%

NCCCNC(=O)c1ccc(COc2c(N)cc(Cl)cc2Cl)cc1
Activity [1]: 1.77% | Activity [2]: 61.33% | Activity [3]: 39.65% | Activity [4]: 21.18% | Activity [34]: Active | half-life [6]: 1.96 h | half-life [35]: 2.67 h | Tmax [7]: 1.5 h | Cmax [8]: 69.3 ng/mL | Cmax [36]: 471 ng/mL | AUC(0-t) at 24 h [9]: 309 ng·h/mL | AUC(0-t) at 24 h [37]: 296 ng·h/mL | AUC ([10]; po, 10 mg/kg, 24 h): 365.22 ng·h/mL | AUC [38]: 317.96 ng·h/mL | Vd [39]: 24.7 L/kg | MRT [11]: 3.26 h | MRT [40]: 1.46 h | F ([12]; po, 10 mg/kg, 24 h): 21.79%

C[C@@H](N)CNC(=O)c1ccc(COc2c(N)cc(Cl)cc2Cl)cc1
Activity [1]: 3.13% | Activity [2]: 63.79% | Activity [3]: 41.38% | Activity [4]: 13.55%

Reference: ChEMBL document CHEMBL5634140, “Discovery of benzyloxy benzamide derivatives as potent neuroprotective agents against ischemic stroke” (Eur J Med Chem, 2023)
